# In patent publication US12070458B2, “Therapeutic agent composition and method of use, for treatment of mild congnitive impairment, depression, and psychological disorders” (priority 2018, dated 2024):
# Entries after “also recorded” stand apart in the source; their conditions may differ.
# Test system: Alzheimer patients with mild cognitive impairment
# Test: Clinical trial on Alzheimer's patients with mild cognitive impairment
# Assay type: in vivo, human
# Conditions: 10 mg orally once a day
# Experimental: A randomized clinical trial of NA-831 (also known as cyclic Prolyl Glycine) was performed on Alzheimer patients with mild cognitive impairment of vascular origin. The drug NA-831 was administered orally with a one capsule of 10 mg once a day over a period of 12 weeks. There were 32 Alzheimer patients participated in the study.
# • Is male or female, at 55-85 years of age (inclusive) at screening. • Self-reported memory complaint, corroborated by spouse or companion as appropriate. • Wechsler Memory Scale III (WMS-III) age-adjusted Logical Memory II score ≤5. • Mini-Mental State Exam (MMSE)≥24. • Center for Epidemiologic Studies-Depression (CES-D) score <27. • Normal thyroid function, defined as TSH, T3 and T4 within normal limits. • Agree not to consume alcoholic beverages within 8 hours of each study visit. • Willing and able to sign informed consent and complete the CTB and all other tests and procedures as listed in the protocol. • Female subjects must be surgically sterile or post-menopausal for at least 2 years. If <2 years post-menopausal, then a follicle stimulating hormone (FSH) ≥40 mIU/mL must be obtained. […] Assessment • 1) A scale assessing the severity of symptoms based on the Unified Assessment of Clinical-Pharmacological Actions of Psychotropic Agents in Patients with Organic Disorders, which provides objective quantitative data on the therapeutic dynamics of psychopathological symptomatology and the characteristics of the psychotropic actions of agents. • 2) The Mini Mental State Examination (MMSE), which consists of a battery of neuropsychological tests evaluating cognitive functions in points: attention, memory, gnosis, speech, praxis, and counting. • 3) The Brief Cognitive Rating Scale (BCRS), which provides assessment of the severities of the individual components of cognitive impairments. • 4) The Cognitive Capacity Screening Examination (CCSE), which consists of a battery of tests assessing cognitive functions: orientation, memory, counting, and the abilities to infer and to group objects. • 5) The Clinical Global Impression scale, which provides quantitative assessments of the therapeutic efficacies of agents, along with tolerance and safety, using investigations of measures of disease severity, the level of “overall improvement,” the therapeutic effect, and the presence and severity of side effects during treatment. • 6) Laboratory analyses consisting of general blood and urine tests, including biochemical investigations (AST, ALT). • 7) ECG traces. Results
# The mental state of patients with mild cognitive impairment, such as but not limited to through vascular origin was defined by the assessment including the Mini Mental State Examination (MMSE), the Brief Cognitive Rating Scale (BCRS), the Cognitive Capacity Screening Examination (CCSE).
# W is Wilcoxon signed-rank test, which is the nonparametric test equivalent to the dependent t-test. It is used to compare two sets of scores that come from the same participants. This can occur when we wish to investigate any change in scores from one time point to another, or when individuals are subjected to more than one condition.
# Clinicians use used a Wilcoxon signed-rank test to understand whether there was a difference in the patient conditions in term of fatigue before and after a period the time with the drug treatment.
# Analysis of the therapeutic efficacies of NA-831 were performed in all patients in the trial using the assessment methods including: the Mini Mental State Examination (MMSE), the Brief Cognitive Rating Scale (BCRS), and the Cognitive Capacity Screening Examination (CCSE).
smiles,measurement,setting,value
"O=C1NCC(=O)N2CCC[C@@H]12 [cPG, cyclic Prolyl Glycine]",long-term memory,12 weeks,improves
same,orientation,12 weeks,improves
same,patients with little improvement,12 weeks,7.5%
same,patients with marked improvement,12 weeks,92.5%
same,short-term memory,12 weeks,improves
same,ability to concentrate and count (Brief Cognitive Rating Scale),"day 42 to day 84, p value of less than 0.01",improve
same,functions significantly improved with p<0.01,listed as NA-831,Reduce fatigue; also recorded: Reduce anxiety; also recorded: Reduce irritability; also recorded: Improve lability; also recorded: Reduce disturbance from waking up at night; also recorded: Reduce daytime drowsiness; also recorded: Improve duration of nocturnal sleep
same,"Affective Lability, W (Wilcoxon signed-rank test)",Baseline vs day 7,23
same,"Anxiety, W (Wilcoxon signed-rank test)",Baseline vs day 7,22
same,"Apathy indifference, W (Wilcoxon signed-rank test)",Baseline vs day 7,19
same,"Daytime drowsiness, W (Wilcoxon signed-rank test)",Baseline vs day 7,19
same,"Decreased mood, W (Wilcoxon signed-rank test)",Baseline vs day 7,3
same,"Disturbance to waking, W (Wilcoxon signed-rank test)",Baseline vs day 7,21
same,"Headache, W (Wilcoxon signed-rank test)",Baseline vs day 7,28
same,"Hyperesthesia, W (Wilcoxon signed-rank test)",Baseline vs day 7,11
same,"Impairments to the depth and duration of nocturnal sleep, W (Wilcoxon signed-rank test)",Baseline vs day 7,37
same,"Increased fatigue, W (Wilcoxon signed-rank test)",Baseline vs day 7,17
same,"Increased irritability, W (Wilcoxon signed-rank test)",Baseline vs day 7,38
same,"Orthostatic Impairment, W (Wilcoxon signed-rank test)",Baseline vs day 7,18
same,"Sleeping Disturbance, W (Wilcoxon signed-rank test)",Baseline vs day 7,37
same,"Sweating, W (Wilcoxon signed-rank test)",Baseline vs day 7,12
same,"Tachycardia, W (Wilcoxon signed-rank test)",Baseline vs day 7,29
same,"Affective Lability, W (Wilcoxon signed-rank test)",Baseline vs day 14,58
same,"Anxiety, W (Wilcoxon signed-rank test)",Baseline vs day 14,22
same,"Apathy indifference, W (Wilcoxon signed-rank test)",Baseline vs day 14,41
same,"Daytime drowsiness, W (Wilcoxon signed-rank test)",Baseline vs day 14,45
same,"Decreased mood, W (Wilcoxon signed-rank test)",Baseline vs day 14,12
same,"Disturbance to waking, W (Wilcoxon signed-rank test)",Baseline vs day 14,29
same,"Headache, W (Wilcoxon signed-rank test)",Baseline vs day 14,49
same,"Hyperesthesia, W (Wilcoxon signed-rank test)",Baseline vs day 14,21
same,"Impairments to the depth and duration of nocturnal sleep, W (Wilcoxon signed-rank test)",Baseline vs day 14,57
same,"Increased fatigue, W (Wilcoxon signed-rank test)",Baseline vs day 14,95
same,"Increased irritability, W (Wilcoxon signed-rank test)",Baseline vs day 14,47
same,"Orthostatic Impairment, W (Wilcoxon signed-rank test)",Baseline vs day 14,37
same,"Sleeping Disturbance, W (Wilcoxon signed-rank test)",Baseline vs day 14,47
same,"Sweating, W (Wilcoxon signed-rank test)",Baseline vs day 14,23
same,"Tachycardia, W (Wilcoxon signed-rank test)",Baseline vs day 14,28
same,"Affective Lability, W (Wilcoxon signed-rank test)",Baseline vs day 21,69
same,"Anxiety, W (Wilcoxon signed-rank test)",Baseline vs day 21,46
same,"Apathy indifference, W (Wilcoxon signed-rank test)",Baseline vs day 21,57
same,"Daytime drowsiness, W (Wilcoxon signed-rank test)",Baseline vs day 21,52
same,"Decreased mood, W (Wilcoxon signed-rank test)",Baseline vs day 21,22
same,"Disturbance to waking, W (Wilcoxon signed-rank test)",Baseline vs day 21,41
same,"Headache, W (Wilcoxon signed-rank test)",Baseline vs day 21,98
same,"Hyperesthesia, W (Wilcoxon signed-rank test)",Baseline vs day 21,33
same,"Impairments to the depth and duration of nocturnal sleep, W (Wilcoxon signed-rank test)",Baseline vs day 21,91
same,"Increased fatigue, W (Wilcoxon signed-rank test)",Baseline vs day 21,97
same,"Increased irritability, W (Wilcoxon signed-rank test)",Baseline vs day 21,68
same,"Orthostatic Impairment, W (Wilcoxon signed-rank test)",Baseline vs day 21,58
same,"Sleeping Disturbance, W (Wilcoxon signed-rank test)",Baseline vs day 21,70
same,"Sweating, W (Wilcoxon signed-rank test)",Baseline vs day 21,37
same,"Tachycardia, W (Wilcoxon signed-rank test)",Baseline vs day 21,35
same,"Affective Lability, W (Wilcoxon signed-rank test)",Baseline vs day 28,118
same,"Anxiety, W (Wilcoxon signed-rank test)",Baseline vs day 28,70
same,"Apathy indifference, W (Wilcoxon signed-rank test)",Baseline vs day 28,59
same,"Daytime drowsiness, W (Wilcoxon signed-rank test)",Baseline vs day 28,67
same,"Decreased mood, W (Wilcoxon signed-rank test)",Baseline vs day 28,23
same,"Disturbance to waking, W (Wilcoxon signed-rank test)",Baseline vs day 28,47
same,"Headache, W (Wilcoxon signed-rank test)",Baseline vs day 28,101
same,"Hyperesthesia, W (Wilcoxon signed-rank test)",Baseline vs day 28,67
same,"Impairments to the depth and duration of nocturnal sleep, W (Wilcoxon signed-rank test)",Baseline vs day 28,93
same,"Increased fatigue, W (Wilcoxon signed-rank test)",Baseline vs day 28,137
same,"Increased irritability, W (Wilcoxon signed-rank test)",Baseline vs day 28,93
same,"Orthostatic Impairment, W (Wilcoxon signed-rank test)",Baseline vs day 28,78
same,"Sleeping Disturbance, W (Wilcoxon signed-rank test)",Baseline vs day 28,70
same,"Sweating, W (Wilcoxon signed-rank test)",Baseline vs day 28,66
same,"Tachycardia, W (Wilcoxon signed-rank test)",Baseline vs day 28,45
same,"Affective Lability, W (Wilcoxon signed-rank test)",Baseline vs day 42,139
same,"Anxiety, W (Wilcoxon signed-rank test)",Baseline vs day 42,107
same,"Apathy indifference, W (Wilcoxon signed-rank test)",Baseline vs day 42,61
same,"Daytime drowsiness, W (Wilcoxon signed-rank test)",Baseline vs day 42,76
same,"Decreased mood, W (Wilcoxon signed-rank test)",Baseline vs day 42,23
same,"Disturbance to waking, W (Wilcoxon signed-rank test)",Baseline vs day 42,69
same,"Headache, W (Wilcoxon signed-rank test)",Baseline vs day 42,120
same,"Hyperesthesia, W (Wilcoxon signed-rank test)",Baseline vs day 42,69
same,"Impairments to the depth and duration of nocturnal sleep, W (Wilcoxon signed-rank test)",Baseline vs day 42,104
same,"Increased fatigue, W (Wilcoxon signed-rank test)",Baseline vs day 42,155
same,"Increased irritability, W (Wilcoxon signed-rank test)",Baseline vs day 42,109
same,"Orthostatic Impairment, W (Wilcoxon signed-rank test)",Baseline vs day 42,67
same,"Sleeping Disturbance, W (Wilcoxon signed-rank test)",Baseline vs day 42,82
same,"Sweating, W (Wilcoxon signed-rank test)",Baseline vs day 42,67
same,"Tachycardia, W (Wilcoxon signed-rank test)",Baseline vs day 42,53
same,"Affective Lability, W (Wilcoxon signed-rank test)",Baseline vs day 56,140
same,"Anxiety, W (Wilcoxon signed-rank test)",Baseline vs day 56,110
same,"Apathy indifference, W (Wilcoxon signed-rank test)",Baseline vs day 56,65
same,"Daytime drowsiness, W (Wilcoxon signed-rank test)",Baseline vs day 56,109
same,"Decreased mood, W (Wilcoxon signed-rank test)",Baseline vs day 56,23
same,"Disturbance to waking, W (Wilcoxon signed-rank test)",Baseline vs day 56,92
same,"Headache, W (Wilcoxon signed-rank test)",Baseline vs day 56,121
same,"Hyperesthesia, W (Wilcoxon signed-rank test)",Baseline vs day 56,78
same,"Impairments to the depth and duration of nocturnal sleep, W (Wilcoxon signed-rank test)",Baseline vs day 56,113
same,"Increased fatigue, W (Wilcoxon signed-rank test)",Baseline vs day 56,159
same,"Increased irritability, W (Wilcoxon signed-rank test)",Baseline vs day 56,110
same,"Orthostatic Impairment, W (Wilcoxon signed-rank test)",Baseline vs day 56,78
same,"Sleeping Disturbance, W (Wilcoxon signed-rank test)",Baseline vs day 56,82
same,"Sweating, W (Wilcoxon signed-rank test)",Baseline vs day 56,67
same,"Tachycardia, W (Wilcoxon signed-rank test)",Baseline vs day 56,67
same,"Affective Lability, W (Wilcoxon signed-rank test)",Baseline vs day 70,142
same,"Anxiety, W (Wilcoxon signed-rank test)",Baseline vs day 70,115
same,"Apathy indifference, W (Wilcoxon signed-rank test)",Baseline vs day 70,67
same,"Daytime drowsiness, W (Wilcoxon signed-rank test)",Baseline vs day 70,117
same,"Decreased mood, W (Wilcoxon signed-rank test)",Baseline vs day 70,24
same,"Disturbance to waking, W (Wilcoxon signed-rank test)",Baseline vs day 70,95
same,"Headache, W (Wilcoxon signed-rank test)",Baseline vs day 70,129
same,"Hyperesthesia, W (Wilcoxon signed-rank test)",Baseline vs day 70,83
same,"Impairments to the depth and duration of nocturnal sleep, W (Wilcoxon signed-rank test)",Baseline vs day 70,118
same,"Increased fatigue, W (Wilcoxon signed-rank test)",Baseline vs day 70,162
same,"Increased irritability, W (Wilcoxon signed-rank test)",Baseline vs day 70,117
same,"Orthostatic Impairment, W (Wilcoxon signed-rank test)",Baseline vs day 70,81
same,"Sleeping Disturbance, W (Wilcoxon signed-rank test)",Baseline vs day 70,82
same,"Sweating, W (Wilcoxon signed-rank test)",Baseline vs day 70,69
same,"Tachycardia, W (Wilcoxon signed-rank test)",Baseline vs day 70,69
same,"MMSE, average","day 84, average 23.5 on day 1",29.75
